In PubChem BioAssay AID489020 (Sanford-Burnham Center for Chemical Genomics, 2010):
Active and inactive are the calls of the source.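 How the source made its calls: active means mean IC50, the dose halving TNF-driven NF-kB light signal, at or below a set limit; inactive means the rest.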

System: HEK-293T NF-kB-Luc, TNFa-induced, luminescence, 14 h
Experiment: inhibitors of TNFa-induced NF-kB reporter, dose response, counter-screen for BCR/TCR NF-kB inhibitor project, cell-based, HEK-293T NF-kB-Luc, luminescence, hits from both screens (AID 489020);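 further: TNF-alpha stimulus at 0.1 ng/mL added with the seeded cells; selectivity counterscreen for hits from B- and T-cell receptor NF-kB screens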

SMILES | IC50
CC1CCCN(c2ccc([N+](=O)[O-])cc2C(=O)c2ccccc2)C1 (stereo unspecified) | 10100 nM
COc1cc2c(cc1OC)[C@@H]1C(=O)c3ccc4c(c3O[C@@H]1CO2)C[C@H](C(C)C)O4 | < 160 nM
CC(Nc1ncnc2sccc12)c1ccccc1 (stereo unspecified) | 600 nM
Cn1nccc1C(=O)NC1CCCc2c1cnn2-c1ccccc1F (stereo unspecified) | < 160 nM
COc1cccc2c1C(=O)c1c(O)c3c(c(O)c1C2=O)C[C@@](O)(C(=O)CO)C[C@@H]3O[C@H]1C[C@H](N)[C@H](O)[C@H](C)O1 | 26900 nM (inactive)
CCN1/C(=C/c2ccc3cc(C)ccc3[n+]2CC)Sc2ccccc21 | 320 nM
CC(C)(C)c1ccc(C(=O)Nc2ccc(CC(=O)O)cc2)o1 | 170 nM
NC1=NC[C@H](Cc2ccc(O)cc2)N1CCCCC1CCCCC1 | 12900 nM
Cc1cc(Cl)c(S(=O)(=O)N2CCCCCC2)cc1OCC(=O)NC1CCCCC1 | 240 nM
CCOC(=O)C1CCCN(S(=O)(=O)c2ccc(S(=O)(=O)N(CC)CC)cc2)C1 (stereo unspecified) | 560 nM
CCCCCNC(=O)c1ccc2c(=O)n(CC3CCCO3)c(=O)[nH]c2c1 (stereo unspecified) | > 80000 nM (inactive)
Cc1cc(CSc2ccccc2)ccc1NC(=O)c1ccc(CN2CCOCC2)cc1 | 260 nM
Nc1ncnc2c1ccn2[C@@H]1O[C@H](CO)[C@@H](O)[C@H]1O | 7420 nM
CCCCC[n+]1cccc2c3ccccc3ccc21 | 2130 nM
COc1ccc(CNc2ncc(-c3ccc(F)cc3)n2C)c2ccccc12 | 17800 nM
CCCCCCCCNc1ncnc2ccccc12 | < 160 nM
CCN(CC)S(=O)(=O)c1ccc(Oc2ccc(S(=O)(=O)N(CC)CC)cc2)cc1 | 460 nM
COc1cc2nc(NC(=O)c3ccccc3)sc(=O)c2cc1OC | > 80000 nM (inactive)
CN(C)c1ccc(-c2n(C)c3ccccc3[n+]2C)cc1 | 6580 nM
COc1cc(NC(C)CCCN)c2ncccc2c1 (stereo unspecified) | 22900 nM (inactive)
CC(C)(O)c1[nH]c2ccc(C#N)cc2c1C(C)(C)O | 65800 nM (inactive)
COC(=O)CCn1nnc(-c2ccc(C(C)C)cc2)n1 | 270 nM

SMILES | IC50
Cc1nn(C(C)(C)C)c(C)c1/C=N/OC(=O)Nc1ccc(Cl)cc1 | < 160 nM
C[C@@H]1O[C@@H](O[C@@H]2C=C3CC[C@@H]4C(CC[C@]5(C)[C@@H](c6ccc(=O)oc6)CC[C@]45O)[C@@]3(C)CC2)[C@H](O)[C@H](O)[C@H]1O (stereo partly specified) | < 160 nM
N#Cc1c(NC(=O)CSc2ncn[nH]2)sc2c1CCCC2 | 610 nM
CCCCCCCCCCCCn1ccc(=N)cc1 | 2390 nM
Nc1nc(F)nc2c1ncn2[C@@H]1O[C@H](CO)[C@@H](O)[C@H]1O | 7240 nM
CC(=O)OC[C@]12CCC(C)=C[C@H]1O[C@@H]1[C@H](O)[C@@H](OC(C)=O)[C@@]2(C)[C@]12CO2 | < 160 nM
CCCCCCn1ccc(=N)cc1 | 13100 nM
Cc1cc(NNC(=O)Nc2cccc(Cl)c2)nc2c1c(C)nn2C | 470 nM
CCn1c(C)nc2cc(-c3nc4n(n3)Cc3ccccc3-4)ccc21 | 240 nM
CCCCCCn1c2c(c(=N)c3c1CCC3)CCC2 | 950 nM
O=C(COC(=O)c1ccc[nH]c1=O)Nc1ccc(N2CCCCC2)cc1 | 1200 nM
C#CC(=O)N(c1ccc(OC)c(OC)c1)C(C(=O)NC1CCCC1)c1cccs1 (stereo unspecified) | 4770 nM
CCCCCCCCCCOC(=O)Cn1c(COc2ccccc2OC)[n+](C)c2ccccc21 | 3080 nM
O=C(CCl)N=c1sccn1Cc1ccc(Cl)cc1Cl | 21000 nM (inactive)
Cc1ccnc(NC(=O)CCCOc2cc(=O)n(C)c3ccccc23)c1 | 5930 nM
COc1ccc(OC)c(C2C3=C(COC3=O)Nc3cc4c(cc32)OCO4)c1 (stereo unspecified) | > 80000 nM (inactive)
CCN1/C(=C\c2ccc3ccccc3[n+]2CC)Sc2cc(C)ccc21 | 630 nM
CCCCCCCCn1ccc(=N)cc1 | 10800 nM
Cc1cc(C(=O)COC(=O)c2ccccc2O)c(C)n1CC1CCCO1 (stereo unspecified) | 380 nM
CCc1cc2c(Sc3nc4ccccc4s3)ncnc2s1 | 21300 nM (inactive)
O=C(NCCNCCO)C1(C(F)(F)F)C/C(=C\CCO)CCCO1 (stereo unspecified) | > 80000 nM (inactive)
CCOc1ccc(S(=O)(=O)NCc2ccncc2)cc1 | 210 nM

SMILES | IC50
Cc1cc([N+](=O)[O-])nn1Cc1ccccc1F | > 80000 nM (inactive)
O=C(Nc1nc(-c2ccc(F)c(F)c2)cs1)c1ccc(OCC2CCCO2)cc1 (stereo unspecified) | 1560 nM
CCCCCn1c(=O)[nH]c2cc(C(=O)N3CCN(Cc4ccc5c(c4)OCO5)CC3)ccc2c1=O | < 160 nM
COc1cc(CSc2nnnn2-c2ccc(C)cc2)cc(OC)c1OC | 470 nM
Cc1ccc2nc(NC(=O)CCCC(=O)O)sc2c1 | 3130 nM
CCC(C)(C)c1ccc(OCCCC[n+]2ccc(C)cc2)c(C(C)(C)CC)c1 | 8160 nM
COc1ccc(C(=O)Nc2nc3ccccc3s2)c(OC)c1 | 220 nM
OCCCNc1nccc(-c2cc(Nc3cccc(Cl)c3)ncn2)n1 | 550 nM
C#CC(=O)N(c1cc(OC)ccc1OC)C(C(=O)NC1CCCC1)c1cccs1 (stereo unspecified) | 3850 nM
COc1ccccc1C(=O)Nc1nc(-c2ccc(S(=O)(=O)N3CCOCC3)cc2)cs1 | 1180 nM
C=C1C(O)[C@@H]2O[C@]3(CC[C@H](/C=C/C(C)[C@@H]4CC(C)=CC5(O[C@H](C[C@@](C)(O)C(=O)O)CCC5O)O4)O3)CC[C@H]2O[C@@H]1C(O)CC(C)[C@H]1OC2(CCCCO2)CCC1C (stereo partly specified) | 310 nM
CCn1c(C)cc(C(=O)COC(=O)c2ccccc2[N+](=O)[O-])c1C | < 160 nM
CN(C)c1cc[n+](CC(=O)c2ccc(-c3ccccc3)cc2)cc1 | 3960 nM
CCCCCCCCCn1ccc(=N)cc1 | 510 nM
Nc1nc(Cl)nc2c1ncn2[C@H]1C[C@H](O)[C@@H](CO)O1 | 18400 nM
COc1ccc(CCNc2c(C)c(C)nc3ncnn23)cc1 | 440 nM
CC(C)(C)c1ccc(C(=O)N2CCCCCC2=O)cc1 | 1780 nM
OCCCNc1cc(-c2ccnc(Nc3cccc(Cl)c3)n2)ccn1 | 380 nM
Cn1nccc1C(=O)NC1CCCc2c1cnn2-c1ccc(F)cc1F (stereo unspecified) | < 160 nM
COc1cccc(NC(=O)Nc2cccc(C(=O)O)c2)c1 | 5440 nM
COc1cccc2c1C(=O)c1c(O)c3c(c(O)c1C2=O)C[C@@](O)(C(=O)CO)C[C@@H]3O[C@H]1C[C@H](N)[C@@H](O)[C@H](C)O1 | > 80000 nM (inactive)
CC(=O)c1cn(Cc2ccccc2C#N)c2ccccc12 | 880 nM

SMILES | IC50
COC1=CC(=O)[C@]2(C=C1OC)OC[C@@H]1Oc3c(ccc4c3C=CC(C)(C)O4)C(=O)[C@@H]12 | 610 nM
O=C(CN1C(=O)c2ccccc2S1(=O)=O)c1ccc2c(c1)OCCCO2 | < 160 nM
C[C@@H]1O[C@@H](O[C@@H]2C=C3CCC4C(CC[C@]5(C)[C@@H](c6ccc(=O)oc6)CC[C@]45O)[C@@]3(C)CC2)[C@H](O)[C@H](O)[C@H]1O (stereo partly specified) | < 160 nM
Cc1cc(Cl)c(S(=O)(=O)N2CCN(c3ccc(F)cc3)CC2)cc1OCC(=O)NC1CCCCC1 | < 160 nM
CC(=O)O[C@H]1[C@H]2O[C@]23[C@@H]2CC[C@]4(O)C[C@@H](O)CC[C@]4(C)C2CC[C@]3(C)[C@H]1c1ccc(=O)oc1 (stereo partly specified) | < 160 nM
C=CCn1c(C)cc(C(=O)CN2C(=O)c3ccccc3S2(=O)=O)c1C | 170 nM
O=C(CSc1nnnn1C1CC2CCC1C2)Nc1ccnc2ccccc12 (stereo unspecified) | < 160 nM
CN(C(=O)OC(C)(C)C)c1ccc(-c2nc3ccccc3s2)cc1 | < 160 nM
O=C(Nc1cccc(C(=O)O)c1)Nc1ccc2c(c1)OCO2 | 2170 nM
Cc1sc2ncnc(N3CCN(CCOc4ccc(Cl)cc4)CC3)c2c1C | < 160 nM
Cc1ccc(OCCN2CCN(c3ncnc4sc(C)c(C)c34)CC2)cc1 | < 160 nM
O=C1/C(=C/c2ccccc2)C[C@@]2(O)[C@H]3Cc4ccc(O)c5c4[C@@]2(CCN3CC2CC2)C1O5 (stereo partly specified) | 8710 nM
COC(=O)Cc1ccc(NC(=O)c2ccc(C(C)(C)C)cc2)cc1 | 440 nM
COc1ccc(CCNc2ncnc3sccc23)cc1OC | < 160 nM
CC1CCN(c2nc3ccc(C(=O)O)cc3s2)CC1 | 4090 nM
C=C1C(=O)O[C@@H]2C[C@@H](C)[C@@H]3C=CC(=O)[C@@]3(C)[C@@H](OC(=O)CC(=O)O[C@H]3[C@@H]4C(=C)C(=O)O[C@@H]4C[C@@H](C)[C@@H]4C=CC(=O)[C@]43C)[C@H]12 | 1480 nM
O=C(O)CSCC(=O)Nc1ccc(C2CCCCC2)cc1 | 470 nM
COc1ccc(CCNc2ncnc3sc(C)cc23)cc1OC | < 160 nM
O=C(c1ccc(Br)cc1)c1cc([N+](=O)[O-])ccc1N1CCCCC1 | 24500 nM (inactive)
Nc1nc(Cl)nc2c1ncn2C1CC(O)C(CO)O1 (stereo unspecified) | > 80000 nM (inactive)
CCOc1ccc(-c2cc(CCCC(=O)Nc3cccc(OC)c3)no2)cc1 | 14000 nM
Cc1ccc(NC(=O)COc2ccc(N(C)C(=O)C(C)(C)C)cc2)cc1S(=O)(=O)N1CCCCC1 | 1740 nM

SMILES | IC50
O=C(CN1C(=O)c2ccccc2S1(=O)=O)c1ccc2c(c1)OCCO2 | 200 nM
O=C(Nc1ccc(Cl)cc1)Nc1cccc(C(=O)O)c1 | 10600 nM
COc1ccc(-c2nc(-c3ccccn3)no2)cc1 | 2000 nM
COc1cc(SC)ccc1C(=O)Nc1nc2ccccc2[nH]1 | 200 nM
CCOc1ccc(NC(=O)Nc2cccc(C(=O)O)c2)cc1 | 1850 nM
N=c1ccn2c(n1)O[C@H]1[C@@H](CO)[C@H](O)O[C@H]12 | > 80000 nM (inactive)
Cc1ccc(-c2csc(NC(=O)C3CCN(S(=O)(=O)c4cccs4)CC3)n2)cc1 | 2140 nM
COc1ccc(/C=C2\SC(=O)N(CCCC(=O)Nc3cc(Cl)ccc3C(=O)O)C2=O)cc1 | 1120 nM
C#CC(=O)N(c1ccc(OC)cc1OC)C(C(=O)NC1CCCC1)c1cccs1 (stereo unspecified) | 4970 nM
CC[n+]1c(C=C2C=C(C)OC(C)=C2)sc2ccccc21 | 1900 nM
C#CC(=O)N(c1cccc(OC)c1)C(C(=O)NC1CCCC1)c1cccs1 (stereo unspecified) | 2650 nM
N=c1c2c(n(Cc3ccc(Br)cc3)c3c1CCC3)CCCC2 | 4300 nM
CC(C)c1ccc(-c2nnn(CCC(=O)O)n2)cc1 | 380 nM
O=C(CCl)N=c1sccn1Cc1ccccc1Cl | 10100 nM
COc1cccc2c1C(CO)N1C(C#N)C3CC(C(=O)O)C(C1C2)N3C (stereo unspecified) | < 160 nM
C=C1C(=O)O[C@@H]2C[C@@H](C)[C@@H]3C=CC(=O)[C@@]3(C)[C@@H](OC(C)=O)[C@H]12 | > 80000 nM (inactive)
Cc1ccc(C(=O)CN2C(=O)c3ccccc3S2(=O)=O)cc1 | 1890 nM
Cn1nc(C(C)(C)C)cc1C(=O)NCc1ccc(N2CCCC2=O)cc1 | 2010 nM
